Experimental data published in patent US20240150396A1 (The Texas A&M University System, priority 2021, published 2024).
Several values for one entry are separate records, joined by “and”; a condition that tells them apart may be missing. Equal values may be shown once. Read-outs that look alike come from different tables or passages of the source. Residues, ends and D or L forms follow the SMILES beside them. *: point of attachment. AMC = Cc1cc(=O)oc2cc(N*)ccc12; Cbz = O=C(OCc1ccccc1)*

How the values were obtained:
cruzain [1] = biological target: T1, cruzain (Trypanosoma cruzi, UniProt P25779); test: biochemical; details: pH 7.5
T1 sequence (P25779 123-467 limits assumed): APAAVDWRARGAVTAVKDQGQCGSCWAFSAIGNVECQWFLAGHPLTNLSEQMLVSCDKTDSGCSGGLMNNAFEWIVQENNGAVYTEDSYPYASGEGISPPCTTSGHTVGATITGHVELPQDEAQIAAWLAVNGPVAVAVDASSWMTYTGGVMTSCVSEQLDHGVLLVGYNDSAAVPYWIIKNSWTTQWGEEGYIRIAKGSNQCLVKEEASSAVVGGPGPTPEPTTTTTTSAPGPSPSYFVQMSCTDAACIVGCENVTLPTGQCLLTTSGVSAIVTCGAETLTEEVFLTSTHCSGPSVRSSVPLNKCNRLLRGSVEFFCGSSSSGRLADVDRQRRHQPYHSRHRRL
In short: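 Fluorogenic assay at 25 °C following AMC release (ex 360/em 460 nm), with typically 0.2 nM cruzain and 10% DMSO, at pH 7.5 or 5.5 buffer with 5 mM DTT.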

[2] = Solubility of cruzain inhibitors in 10% DMSO, light scattering; format: physicochemical
Procedure: Synthetic PVHIs such as 5-16 and 22-24 at final concentrations of 1-200 μM were added to 0.25 mL solutions of 10% DMSO (v/v) in clear 96-well Greiner plates, and absorbance at 620 nm was measured using a BioTek M2 Synergy plate reader at t=0 and 120 min to evaluate increased light scattering and precipitated inhibitor.

[3] = Host cell cytotoxicity in the T. cruzi infection model; format: cell-based, mouse; details: mouse; host cardiomyoblasts; read-out: C2C12 Cytotoxicity CC50
Procedure: (§1) The plates were incubated at 37° C. for 48 h, and the wells were fixed with 2% paraformaldehyde in PBS and stained with 5 μg mL-1 4,6-diamidino-2-phenylindole. After at least 30 min of incubation at room temperature in the dark, the plates were read in an automated microscope, ImageXpress Micro XL (Molecular Devices), and the images were analyzed by custom-built software to quantify and assess viability of the parasites, as well as the host cells independently. The compilation of data was used to calculate the antiparasitic activity (EC50) and host cytotoxicity (CC50).
T. cruzi infection was evaluated in C2C12 murine cardiomyoblast cells. […] The wells were fixed with 2% PFA in PBS, and stained by 5 μg/ml of DAPI. After >30 min of incubation in a dark environment, the plates were read on an ImageXpress MicroXL microscope (Molecular Devices). The images were analyzed to quantify parasites as well host cells.

[4] = system: T. b. brucei bloodstream forms; test: Growth of axenic cultures of T. b. brucei bloodstream forms (BSFs)
Procedure: Selected cruzain inhibitors were evaluated in axenic cell cultures of T. b. brucei and T. cruzi. Procyclic trypomastigotes of T. b. brucei (ATCC PRA-381) were grown in the SDM-79 medium at 26° C., and bloodstream forms (ATCC PRA-383) were grown at 37° C. in the HMI-9 medium at 5% C02. […] Both forms of T. b. brucei and T. cruzi were grown in media containing 10% fetal bovine serum (FBS) and penicillin/streptomycin (50 U mL^−1). […] Control samples contained equal amounts of DMSO. T. b. brucei and T. cruzi (5 mL in flask cultures) were seeded at ˜3×10^6 cells and diluted daily, maintaining a mid-log growth phase for up to 120 h. […] After each cell dilution, fresh compound or an equal volume of DMSO (control samples) was supplemented into the cultures, while maintaining a constant concentration of each inhibitor. Cell counts were scored using a Z2 Coulter Counter.
In vitro Cell Assays. Bloodstream form T. b. brucei strain SM427 was grown in HM1-9 medium that included fetal bovine serum (10%) and antibiotics (100 U/mL penicillin-streptomycin, Gibco™). Inhibitors dissolved in 100% (v/v) DMSO stock solutions were added at final concentrations of 0.5-20 μM (final concentrations of DMSO were <1% (v/v)). T. b. brucei were seeded at ˜1×10^6 cells at 37° C., and diluted daily to maintain a log phase of growth for up to 96 h. […] After each dilution, the cell cultures were supplemented with inhibitor or DMSO (control) to keep concentrations constant. Cell density was determined and graphed as previously reported.^36 Trypanosomes were quantified using a Z2 Coulter Counter, and values of EC50 were determined after 3-4 days of treatment by the interpolation method of Huber and Koella.^37

human dermal fibroblasts = test: Human cell toxicity, resazurin viability; format: cell-based; details: human dermal fibroblasts; read-out: Human Cell Cytotoxicity CC50
Procedure: Primary human dermal fibroblast (HDF) cells were used to evaluate human cell toxicity of cruzain inhibitors. HDF cells were plated in a 384-well plate at 2400 cells per well (62,000 cells mL^−1). Inhibitors in 100% DMSO were added in duplicate to final concentrations of 0.001-0.1 mM and 1% DMSO (v/v) with 1% DMSO as a control sample, and cells were cultured at 37° C. for 48 h, followed by the addition of resazurin. Cell viability was then assessed by reading of fluorescence (excitation/emission: 544 nm/590 nm) after an additional 24 h of incubation.

human cathepsin B = human cathepsin B (Homo sapiens (Human), UniProt P07858); test: Human cathepsin B inhibition, Z-FR-AMC assay; format: biochemical; details: pH 5.5, 25° C.
Procedure: (§2) Recombinant human cathepsins B and L were purchased from Millipore Sigma and used without further treatment. The solid proteins were dissolved into a solution of 50 mM sodium acetate (pH 5.5), 1 mM EDTA, 1 mM CHAPS, 10% (v/v) DMSO, and 5 mM DTT to final concentrations of […] in 20-mL aliquots, and stored at −80° C. until needed. These samples were then diluted into the same buffer to concentrations of −100 nM, and these dilutions were stored at 4° C. and used daily until depletion.
(§3) For assays of cathepsin L and B, inhibitors were evaluated in 0.25-mL reaction mixtures containing a buffer of sodium acetate (pH 5.5), 1 mM CHAPS, 1 mM Na2EDTA, and 5 mM DTT at 25° C. The fluorogenic substrate Cbz-Phe-Arg-7-amino-4-methyl-coumarin (Z-FR-AMC) was dissolved in 100% DMSO, as were all inhibitors, and aliquots of both substrates and inhibitors were added to reaction mixtures to final concentrations of DMSO of 10% (v/v). […] Formation of the fluorescent product AMC was monitored over 30-60-minute time courses for reaction mixtures in 96-well black microplates (Corning Costar®). Rates of peptidolysis of the dipeptide-AMC substrate(s) were measured on either a SpectraMax M5 (Molecular Devices) or a Synergy HTX (Biotek, Wisnooki, VT) microplate reader with λex=360 nm, λem=460 nm in ≥8-sec intervals. Control samples excluded substrate. The measured relative fluorescence units (RFUs) of generated AMC were converted to reaction rates of μM/s by use of a standard curve of known AMC concentrations obtained for both plate readers.

[5] = system: T. b. brucei procyclic forms; test: Growth of axenic cultures of T. b. brucei procyclic forms (PCFs); format: cell-based, Trypanosoma brucei brucei; details: axenic culture, read-out: EC50 T. b. brucei PCF
[6] = system: T. cruzi epimastigotes (strain Y); test: Growth of axenic cultures of T. cruzi epimastigotes
Procedure: Selected cruzain inhibitors in axenic cell cultures of Trypanosoma brucei brucei (procyclic trypomastigotes; ATCC PRA-381) and Trypanosoma cruzi (epimastigote forms; strain Y, ATCC 50832GFP) were tested. T. b. brucei is grown in SDM-79 medium, and T. cruzi is grown in ATCC medium (1029 LIT medium). Both media included fetal calf serum (10%) and penicillin/streptomycin (50 U/mL). […] T. brucei and T. cruzi (5 mL in flask cultures) at 26° C. were seeded at ˜3×10^6 cells, and diluted daily maintaining a mid-log growth phase for up to 100 hrs. Cell counts were scored using a Z2 Coulter Counter. After each cell dilution, fresh compound or an equal volume of DMSO (control samples), was supplemented into the cultures. […] Cruzain inhibitors where the highest concentration reflects the upper limit of solubilities of the inhibitors in 1% (v/v) DMSO solutions were evaluated. These inhibitors are likely to bind to proteins in fetal calf serum, and for these reasons, fresh inhibitors were added each time cells were re-fed.
Selected cruzain inhibitors were evaluated in axenic cell cultures of T. b. brucei and T. cruzi. Procyclic trypomastigotes of T. b. brucei (ATCC PRA-381) were grown in the SDM-79 medium at 26° C., and bloodstream forms (ATCC PRA-383) were grown at 37° C. in the HMI-9 medium at 5% C02. T. cruzi (epimastigote forms, strain Y, ATCC 50832GFP) was grown in the ATCC medium (1029 LIT medium). Both forms of T. b. brucei and T. cruzi were grown in media containing 10% fetal bovine serum (FBS) and penicillin/streptomycin (50 U mL^−1). […] Control samples contained equal amounts of DMSO. T. b. brucei and T. cruzi (5 mL in flask cultures) were seeded at ˜3×10^6 cells and diluted daily, maintaining a mid-log growth phase for up to 120 h. […] After each cell dilution, fresh compound or an equal volume of DMSO (control samples) was supplemented into the cultures, while maintaining a constant concentration of each inhibitor. Cell counts were scored using a Z2 Coulter Counter.

human cathepsin L = human cathepsin L (Homo sapiens (Human), UniProt P07711); test: Human cathepsin L inhibition, Z-FR-AMC assay; format: biochemical; details: for Ki: pH 5.5, 25° C.
Chain of human cathepsin L (P07711 114-333): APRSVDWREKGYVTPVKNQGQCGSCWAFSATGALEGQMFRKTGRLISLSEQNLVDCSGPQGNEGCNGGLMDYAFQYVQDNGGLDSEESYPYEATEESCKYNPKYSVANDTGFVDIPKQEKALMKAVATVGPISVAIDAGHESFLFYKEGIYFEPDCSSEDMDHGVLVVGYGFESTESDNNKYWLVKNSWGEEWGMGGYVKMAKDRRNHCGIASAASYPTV
Procedure: as §2, §3

[7] = system: T. cruzi (Ca-I/72) in C2C12 murine cardiomyoblasts; test: T. cruzi-infected murine cardiomyoblasts (C2C12); format: cell-based, Trypanosoma cruzi; details: read-out: EC50 T. cruzi-infected cardiomyoblasts
Procedure: as §1, with “For the evaluation of the antitrypanocidal activity of cruzain inhibitors, we infected a C2C12 mouse cardiomyoblast cell line (ATCC CRL-1772) with T. cruzi strain Ca-I/72 (a gift from James Dvorak, National Institutes of Health) in […] plates. […] The plates” for “The plates”
T. cruzi infection was evaluated in C2C12 murine cardiomyoblast cells. 384-microwell plates containing C2C12 murine cardiomyoblast cells were infected with 10^3 and 10^4 cells of T. cruzi (Ca-I/72), to which was added 3-fold serially-dilutions of inhibitor with maximal concentrations of 10 μM, followed by incubation at 37° C. for 2 days. The wells were fixed with 2% PFA in PBS, and stained by 5 μg/ml of DAPI. After >30 min of incubation in a dark environment, the plates were read on an ImageXpress MicroXL microscope (Molecular Devices). The images were analyzed to quantify parasites as well host cells.

SARS-CoV-2 3CL protease = SARS-CoV-2 3CL protease (Severe acute respiratory syndrome coronavirus 2 (2019-nCoV) (SARS-CoV-2), UniProt P0DTD1); test: biochemical; format: biochemical; details: for Ki: read-out: Ki* 3CLpro
[8] = system: trypanosomes (T. b. brucei, T. cruzi); test: Anti-trypanosomal activity, culture not stated; format: cell-based; details: culture (T. b. brucei PCF/BSF or T. cruzi-infected cardiomyoblasts) not stated
[9] = system: SARS-CoV-2 in Vero E6 cells; test: Anti-CoV-2 activity in Vero E6 cells; format: cell-based
cruzain [10] = biological target: T1, cruzain; test: Kinetic parameters of peptide substrates for cruzain; format: biochemical; details: relative to Cbz-Phe-Arg-AMC
Procedure: All enzyme assays were performed at 25° C. Initial rates of the peptidolytic reaction catalyzed by cruzain were measured by monitoring the fluorescence generated by cleavage of the dipeptide-AMC bond. Assays were conducted in 96-well plates (Greiner; flat-bottom, clear black plates) in a total volume of 250 μL, containing either 50 mM MES (pH 7.5), 50 mM TAPSO, 100 mM DEA, 1 mM CHAPS, 1 mM Na2EDTA, 5 mM DTT, and 10% DMSO (v/v) or 50 mM sodium acetate (pH 5.5), 50 mM MES, 100 mM TEA, 1 mM CHAPS, 1 mM Na2EDTA, 5 mM DTT, and 10% DMSO (v/v). Substrates were dissolved in 100% DMSO and were then diluted 10-fold such that when added to reaction mixtures, final DMSO concentration was 10% (v/v). Reactions were initiated with the addition of 1-10 μL of cruzain (final concentrations: 0.1-3.0 nM (preincubation studies)). Fluorescence was measured on either a SpectraMax M5 (Molecular Devices) or a Synergy HTX (BioTek, Winooski, VT) microplate reader (λex=360 nm, λem=460 nm). Initial rates were determined from continuous kinetic time courses and calculated from the earliest time points, typically at less than 10 min.
Initial velocity data for cruzain-catalyzed reactions of fluorogenic peptide substrates were determined by fitting to eq 1 using GraphPad Prism 6.0 or SigmaPlot 12.0. For eq 1, kcat is the turnover number, [E]t is the concentration of active sites of cruzain, and Ka is the Michaelis constant for the substrate A. Cruzain concentrations were determined by spectrophotometric analysis of purified sample solutions as described.^44

cruzain [11] = biological target: T1, cruzain; details: 2% DMSO, from Ref. 40; cited from earlier work
[12] = apparent tight-binding inhibition constant, 25° C., read-out: Ki*
[13] = read-out: EC50 T. b. brucei BSF, axenic culture
[14] = obtained >10 minutes following initiation of reaction by addition of enzyme, read-out: Ki* Cruzain

Compound | EC50 [5] [µM] | EC50 ([7]; C2C12 murine cardiomyoblasts) | EC50 [4, 13] | Ki (cruzain [1]; [14]) [µM] | Ki (human cathepsin B; read-out: Ki* hCatB) [µM] | EC50 [8] [µM] | EC50 [9] | Ki (human cathepsin L; read-out: Ki* hCatL) [µM] | Ki (SARS-CoV-2 3CL protease; pH 7.5) [µM] | other results
O=C(N[C@@H](Cc1ccccc1)C(=O)N[C@H](/C=C/c1ccccc1)Cc1ccccc1)OCc1ccccc1 [Compound 5, Benzyl ((S)-1-(((S,E)-1,4-Diphenylbut-3-en-2-yl)amino)-1-oxo-3-phenylpropan-2-yl)carbamate] |  |  |  |  |  |  |  |  |  | Ki (cruzain [1]; apparent initial inhibition constant, 25° C., read-out: Ki): 1.8 ± 0.1 µM; Ki (cruzain [1]; [12]): 0.87 µM; aqueous solubility [2]: poor aqueous solubility
O=C(N[C@@H](Cc1ccccc1)C(=O)N[C@H](/C=C/c1ccc([N+](=O)[O-])cc1)Cc1ccccc1)OCc1ccccc1 [Compound 6, Benzyl ((S)-1-(((S,E)-4-(4-Nitrophenyl)-1-phenylbut-3-en-2-yl)-amino)-1-oxo-3-phenylpropan-2-yl)carbamate] |  |  |  |  |  |  |  |  |  | Ki (cruzain [1]; [12]): 0.37 ± 0.02 µM; aqueous solubility [2]: poor aqueous solubility
O=C(N[C@@H](Cc1ccccc1)C(=O)N[C@H](/C=C/c1ccccn1)CCc1ccccc1)OCc1ccccc1 [Compound 13, Benzyl ((S)-1-Oxo-3-phenyl-1-(((S,E)-5-phenyl-1-(pyridin-2-yl)-pent-1-en-3-yl)amino)propan-2-yl)carbamate] | > 10 | 5.9 ± 0.3 µM |  |  |  |  |  |  |  | CC50 at 48 h [3]: > 10 µM; EC50 ([4]; Trypanosoma brucei, read-out: EC50 T. b. brucei BSF, axenic culture): 4 ± 2 µM; CC50 (human dermal fibroblasts): > 100 µM; Ki (human cathepsin B; 10% DMSO, read-out: Ki* Human Cathepsin B): 6.5 ± 0.9 µM; EC50 ([5]; Trypanosoma brucei): 5.5 µM; EC50 ([6]; Trypanosoma cruzi, read-out: T. cruzi axenic culture EC50, epimastigotes): > 20 µM; T. cruzi axenic culture EC50 ([6]; epimastigotes): poorly effective; Ki (human cathepsin L; 10% DMSO, read-out: Ki* Human Cathepsin L): 1.9 ± 0.2 µM; EC50 ([7]; Trypanosoma cruzi, C2C12, C2C12 murine cardiomyoblasts): 5 to 10 µM
COc1ccc2c(c1)CC(NC(=O)C(Cc1ccccc1)NC(=O)OCc1ccccc1)C(O)O2 (centres unmarked) [Compound 31] | 11 |  | 3 µM and 2.6 µM | 0.35 ± 0.03 | 5.5 ± 0.4 | 3 to 11 | 2.5 µM and 2.5 to 7.5 µM | 0.038 ± 0.002 |  | Ki* 3CLpro (SARS-CoV-2 3CL protease): not an inhibitor of 3CL protease; Ki (SARS-CoV-2 3CL protease): > 10 µM
O=C(NC(Cc1ccccc1)C(=O)NC1Cc2cc(Cl)ccc2OC1O)OCc1ccccc1 (centres unmarked) [Compound 33] | 10 |  | 6 µM and 5.8 µM | 0.074 ± 0.01 | 1.4 ± 0.1 | 6 to 10 |  | 0.027 ± 0.0007 | > 10 | 
O=C(NC(Cc1ccccc1)C(=O)NC1Cc2cc(F)ccc2OC1O)OCc1ccccc1 (centres unmarked) [Compound 34] | 11.1 | 3.5 µM and 3 to 5.7 µM | 2.7 µM | 0.048 ± 0.002 | 2.3 ± 0.2 | 3 to 11 | 4 µM and 2.5 to 7.5 µM | 0.023 ± 0.001 | > 10 | 
COC(=O)c1ccc2c(c1)CC(NC(=O)C(Cc1ccccc1)NC(=O)OCc1ccccc1)C(O)O2 (centres unmarked) [Compound 35] | 6.7 | 3.5 ± 0.3 µM |  | 0.018 ± 0.0005 | 0.67 ± 0.03 | 3.5 to 6.7 | 2.5 µM | 0.0108 ± 0.0008 | > 10 | EC50 ([6]; read-out: T. cruzi axenic culture EC50, epimastigotes): 2 to 20 µM; inhibits cathepsin L more potently than cruzain (human cathepsin L): 6 fold
Cc1cc(=O)oc2cc(NC(=O)[C@H](CCCN=C(N)N)NC(=O)[C@H](CCCN=C(N)N)NC(=O)OCc3ccccc3)ccc12 [Compound S6, Cbz-Arg-Arg-AMC] (Cbz-Arg-Arg-{AMC}) |  |  |  |  |  |  |  |  |  | kcat rel (cruzain [10]): 0.75; Km (cruzain [11]): 3.7 ± 0.4 µM; kcat (cruzain [11]): 7.2 ± 0.1 s⁻¹; kcat/Km (cruzain [11]): 1.9e+06 ± 200000 M⁻¹ s⁻¹
Cc1cc(=O)oc2cc(NC(=O)C(C)NC(=O)C(Cc3ccccc3)NC(=O)OCc3ccccc3)ccc12 (stereo not drawn) [Compound S12, Cbz-Phe-Ala-AMC] |  |  |  |  |  |  |  |  |  | kcat rel (cruzain [10]): 0.09; Km (cruzain [11]): 38 ± 2 µM; kcat (cruzain [11]): 0.89 ± 0.06 s⁻¹; kcat/Km (cruzain [11]): 23000 ± 3000 M⁻¹ s⁻¹
